According to patent US10544130B2, “Metallo-beta-lactamase inhibitors” (priority 2015, dated 2020):

How the values were obtained:
[1] = test system: Pseudomonas aeruginosa PAO1 MB9798 (efflux+, IMP-1); conditions: ratio MITC95 PA 9798/MITC95 PA 9799; imipenem at 2 μg/mL
Method in brief: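 Isogenic PAO1 pair (efflux+ MB9798, efflux− MB9799, both IMP-1) tested by microbroth MIC with fixed imipenem and/or ceftazidime, usually at CLSI breakpoint, plus fixed class A/C inhibitor against AmpC. MBL inhibitor titrated; concentration restoring susceptibility recorded and fold difference between strains taken as efflux extent.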

[2] = test system: Serratia marcescens expressing IMP-1 (CL5741); format: cell-based; conditions: with imipenem 1 μg/ml; 95% inhibition of bacterial growth
Method in brief: (§1)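 Clinical strains were grown overnight at 35 °C on blood agar, adjusted to set OD600 in saline and diluted 1:100 into 1.1× CAMHB. Inhibitor was tested with and without imipenem at 1 μg/ml. After 22–24 h at 35 °C, absorbance was read to give synergistic concentration.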

[3] = test system: Escherichia coli expressing NDM-1 (CLB30005, CLB30016); format: cell-based; conditions: with imipenem 1 μg/ml; 95% inhibition of bacterial growth
Method in brief: as §1

[4] = test system: Klebsiella pneumoniae expressing VIM-1 (IHMA599644); format: cell-based; conditions: with imipenem 1 μg/ml; 95% inhibition of bacterial growth
Method in brief: as §1

## Nc1cc(-c2ccc(S(=O)(=O)N[C@@H]3CCNC3)c(S(N)(=O)=O)c2-c2nn[nH]n2)ccn1 [Example 288, (R)-4-(2-aminopyridin-4-yl)-N1-(pyrrolidin-3-yl)-3-(2H-tetrazol-5-yl)benzene-1,2-disulfonamide]
[1]
  Efflux ratio: 2.00
[2]
  Serratia marcescens (IMP-1) MITC95: 1.563 µM
[3]
  Escherichia coli (NDM-1) MITC95: 0.7813 µM
[4]
  Klebsiella pneumoniae (VIM-1) MITC95: 1.563 µM

## NCc1ncc(-c2cccc(-c3ccc(S(=O)(=O)N[C@@H]4CCNC4)c(S(N)(=O)=O)c3-c3nn[nH]n3)c2)[nH]1 [Example 278, (R)-3′-(2-(aminomethyl)-1H-imidazol-5-yl)-N4-(pyrrolidin-3-yl)-2-(2H-tetrazol-5-yl)-[1,1′-biphenyl]-3,4-disulfonamide]
[1]
  Efflux ratio: 1.00
[2]
  Serratia marcescens (IMP-1) MITC95: 0.7813 µM
[3]
  Escherichia coli (NDM-1) MITC95: 0.7813 µM
[4]
  Klebsiella pneumoniae (VIM-1) MITC95: 0.7813 µM

## NC[C@H](N)CNS(=O)(=O)c1ccc(-c2cccc(-c3c[nH]c(N)n3)c2)c(-c2nn[nH]n2)c1S(N)(=O)=O [Example 434, (S)-3′-(2-amino-1H-imidazol-4-yl)-N^4-(2,3-diaminopropyl)-2-(2H-tetrazol-5-yl)-[1,1′-biphenyl]-3,4-disulfonamide]
[2]
  Serratia marcescens (IMP-1) MITC95: 1.563 µM
[3]
  Escherichia coli (NDM-1) MITC95: 0.7813 µM
[4]
  Klebsiella pneumoniae (VIM-1) MITC95: 1.563 µM

## Nc1ncc(-c2cc(-c3ccc(S(=O)(=O)N[C@@H]4CCNC4)c(S(N)(=O)=O)c3-c3nnn[nH]3)ccn2)[nH]1 [Example 440, (R)-4-(2-(2-Amino-1H-imidazol-5-yl)pyridin-4-yl)-N^1-(pyrrolidin-3-yl)-3-(1H-tetrazol-5-yl)benzene-1,2-disulfonamide]
[2]
  Serratia marcescens (IMP-1) MITC95: 1.563 µM
[3]
  Escherichia coli (NDM-1) MITC95: 0.7813 µM
[4]
  Klebsiella pneumoniae (VIM-1) MITC95: 1.563 µM

## NCCNS(=O)(=O)c1ccc(-c2cccc(C(=O)N[C@@H]3CNC[C@H]3O)c2)c(-c2nn[nH]n2)c1S(N)(=O)=O [Example 344, 4′-(N-(2-aminoethyl)sulfamoyl)-N-((3R,4R)-4-hydroxypyrrolidin-3-yl)-3′-sulfamoyl-2′-(2H-tetrazol-5-yl)-[1,1′-biphenyl]-3-carboxamide]
[2]
  Serratia marcescens (IMP-1) MITC95: 1.563 µM
[3]
  Escherichia coli (NDM-1) MITC95: 0.7813 µM
[4]
  Klebsiella pneumoniae (VIM-1) MITC95: 1.563 µM

## NC[C@H]1CCN(S(=O)(=O)c2ccc(-c3cccc4[nH]c(N)nc34)c(-c3nn[nH]n3)c2S(N)(=O)=O)C1 [Example 253, (R)-3-(2-amino-1H-benzo[d]imidazol-4-yl)-6-((3-(aminomethyl)pyrrolidin-1-yl)sulfonyl)-2-(2H-tetrazol-5-yl)benzenesulfonamide]
[2]
  Serratia marcescens (IMP-1) MITC95: 0.7813 µM
[3]
  Escherichia coli (NDM-1) MITC95: 1.563 µM
[4]
  Klebsiella pneumoniae (VIM-1) MITC95: 1.563 µM

## NCC(=O)NC1C=C(c2ccc(S(=O)(=O)N[C@@H]3CCNC3)c(S(N)(=O)=O)c2-c2nn[nH]n2)CCC1 (stereo partly drawn) [Example 269, 2-Amino-N-(4′-(N—((R)-pyrrolidin-3-yl)sulfamoyl)-3′-sulfamoyl-2′-(2H-tetrazol-5-yl)-3,4,5,6-tetrahydro-[1,1′-biphenyl]-3-yl)acetamide]
[2]
  Serratia marcescens (IMP-1) MITC95: 1.563 µM
[3]
  Escherichia coli (NDM-1) MITC95: 1.563 µM
[4]
  Klebsiella pneumoniae (VIM-1) MITC95: 3.125 µM

## Nc1nc2c(-c3ccc(S(=O)(=O)N[C@H]4CCNC4)c(S(N)(=O)=O)c3-c3nn[nH]n3)cc(F)cc2[nH]1 [Example 399, (S)-4-(2-amino-6-fluoro-1H-benzo[d]imidazol-4-yl)-N^1-(pyrrolidin-3-yl)-3-(2H-tetrazol-5-yl)benzene-1,2-disulfonamide]
[2]
  Serratia marcescens (IMP-1) MITC95: 1.563 µM
[3]
  Escherichia coli (NDM-1) MITC95: 0.7813 µM
[4]
  Klebsiella pneumoniae (VIM-1) MITC95: 1.563 µM

## NCCNS(=O)(=O)c1ccc(-c2cccc(NC(=O)[C@@H](N)CN)c2)c(-c2nn[nH]n2)c1S(N)(=O)=O [Example 453, (S)-2,3-Diamino-N-(4′-(N-(2-aminoethyl)sulfamoyl)-3′-sulfamoyl-2′-(2H-tetrazol-5-yl)-[1,1′-biphenyl]-3-yl)propanamide]
[2]
  Serratia marcescens (IMP-1) MITC95: 3.125 µM
[3]
  Escherichia coli (NDM-1) MITC95: 1.563 µM
[4]
  Klebsiella pneumoniae (VIM-1) MITC95: 3.125 µM

## C[C@H](N)Cc1nc2c(-c3ccc(S(=O)(=O)N[C@@H]4CCNC4)c(S(N)(=O)=O)c3-c3nn[nH]n3)cccc2[nH]1 [Example 441, 4-(2-((S)-2-Aminopropyl)-1H-benzo[d]imidazol-4-yl)-N1-((R)-pyrrolidin-3-yl)-3-(2H-tetrazol-5-yl)benzene-1,2-disulfonamide]
[2]
  Serratia marcescens (IMP-1) MITC95: 1.563 µM
[3]
  Escherichia coli (NDM-1) MITC95: 1.563 µM
[4]
  Klebsiella pneumoniae (VIM-1) MITC95: 1.563 µM

## NCC(CN)NS(=O)(=O)c1ccc(-c2cccc(-c3cnc(N)[nH]3)n2)c(-c2nnn[nH]2)c1S(N)(=O)=O [Example 438, 4-(6-(2-Amino-1H-imidazol-5-yl)pyridin-2-yl)-N^1-(1,3-diaminopropan-2-yl)-3-(1H-tetrazol-5-yl)benzene-1,2-disulfonamide]
[2]
  Serratia marcescens (IMP-1) MITC95: 3.125 µM
[3]
  Escherichia coli (NDM-1) MITC95: 3.125 µM
[4]
  Klebsiella pneumoniae (VIM-1) MITC95: 3.125 µM

## C[C@@H](N)CNS(=O)(=O)c1ccc(-c2cccc3sc(N)nc23)c(-c2nn[nH]n2)c1S(N)(=O)=O [Example 390, 4-(2-amino-1,3-benzothiazol-4-yl)-N^1-[(2R)-2-aminopropyl]-3-(2H-tetrazol-5-yl)benzene-1,2-disulfonamide]
[2]
  Serratia marcescens (IMP-1) MITC95: 1.563 µM
[3]
  Escherichia coli (NDM-1) MITC95: 3.125 µM
[4]
  Klebsiella pneumoniae (VIM-1) MITC95: 3.125 µM

## NC[C@@H](O)CNS(=O)(=O)c1ccc(-c2ccnc(N)c2)c(-c2nn[nH]n2)c1S(N)(=O)=O [Example 419, (R)-N^1-(3-amino-2-hydroxypropyl)-4-(2-aminopyridin-4-yl)-3-(2H-tetrazol-5-yl)benzene-1,2-disulfonamide]
[2]
  Serratia marcescens (IMP-1) MITC95: 0.7813 µM
[3]
  Escherichia coli (NDM-1) MITC95: 0.1953 µM
[4]
  Klebsiella pneumoniae (VIM-1) MITC95: 1.563 µM

## NCCNC(=O)c1cc(Cl)cc(-c2ccc(S(=O)(=O)N[C@@H]3CCNC3)c(S(N)(=O)=O)c2-c2nn[nH]n2)c1N [Example 450, (R)-2-Amino-N-(2-aminoethyl)-5-chloro-4′-(N-(pyrrolidin-3-yl)sulfamoyl)-3′-sulfamoyl-2′-(2H-tetrazol-5-yl)-[1,1′-biphenyl]-3-carboxamide]
[2]
  Serratia marcescens (IMP-1) MITC95: 1.563 µM
[3]
  Escherichia coli (NDM-1) MITC95: 1.563 µM
[4]
  Klebsiella pneumoniae (VIM-1) MITC95: 1.563 µM

## NCc1nc(-c2cccc(-c3ccc(S(=O)(=O)N[C@H]4CNC[C@H]4N)c(S(N)(=O)=O)c3-c3nn[nH]n3)c2)c[nH]1 [Example 462]
[2]
  Serratia marcescens (IMP-1) MITC95: 1.563 µM
[3]
  Escherichia coli (NDM-1) MITC95: 1.563 µM
[4]
  Klebsiella pneumoniae (VIM-1) MITC95: 1.563 µM

## NCCNCc1sc(N)nc1-c1cccc(-c2ccc(S(=O)(=O)N[C@@H]3CCNC3)c(S(N)(=O)=O)c2-c2nnn[nH]2)c1 [Example 433, (R)-3′-(2-amino-5-(((2-aminoethyl)amino)methyl)thiazol-4-yl)-N^4-(pyrrolidin-3-yl)-2-(1H-tetrazol-5-yl)-[1,1′-biphenyl]-3,4-disulfonamide]
[2]
  Serratia marcescens (IMP-1) MITC95: 1.563 µM
[3]
  Escherichia coli (NDM-1) MITC95: 0.7813 µM
[4]
  Klebsiella pneumoniae (VIM-1) MITC95: 1.563 µM
